Experimental data as given in patent publication US5541174A, “Analgesic method” (priority 1995, dated 1996).
Like-named read-outs stand apart in the source and are kept apart here.

Experiments:
[1] = system: adjuvant-induced arthritic pain in rats; test: Adjuvant-induced arthritic pain; type: in vivo, male Sprague-Dawley rats
Excerpt: 2. Adjuvant-induced arthritic pain as described in:
S. KUZNA, et al., Measurement of Arthritic Pain and Effects of Analgesics in the Adjuvant-Treated Rat, Chem. Pharm. Bull. 23, 1184-1191 (1975);
C. A. WINTER, et al., Analgesic Activity of Diflunisal in Rats with Hyperalygesia Induced by Freud's Adjuvant, J. Pharmacol. Exp. Ther. 211, 678-685 (1979; and
M. E. ROSENTHALE, et al., Adjuvant Arthritis:Immuno-Pathological and Hyperalgesic Features, Fed. Proced. 41, 2577-2582 (1982),
incorporated by reference herein.
Groups of 5-6 male Sprague-Dawley rats (Taisho Pharmaceutical Co. Research Center) weighing 140 to 160 g at the time of Mycobacterium butyricum (adjuvant, Difco Laboratories, Detroit, Mich.) injection were used to study each compound. Rats were injected intradermally at the base of the tail with 0.1 ml of a parafin oil suspension of 0.5 mg of heat-killed mycobacterium. Fifteen to 19 days later, drugs were administered orally or subcutaneously in 0.5 ml of vehicle per 100 g of body weight to rats showing the nociceptive reaction, vocalization following a gentle flexion of the tarsal-tibial joint of the inflamed hind-paw. Vocalization responses were measured every hour for 5 hours. […] The ED50 value and 95% confidence limits were calculated from the positive rate for non-treated controls, vehicle-treated adjuvant arthritic rats, by the method of Litchfield and Wilcoxin.
All drugs were suspended with 5% gum arabic in saline solution or wetted with enough propylene glycol to give a final concentration of 4% propylene glycol and the wetted solid suspended in 1.4% polyvinyl alcohol in saline.

[2] = system: acetic acid induced writhing in mice; test: Acetic acid-induced writhing test; type: in vivo, ICR male mice
Procedure: 1. Acetic acid-induced writhing test as described in Koster et al., "Acetic Acid for Analgesic Screening", Fed. Proc. 18, 412 (1959), incorporated by reference herein; and
Groups of 10 ICR male mice (Taisho Pharmaceutical Co. Research Center) were used to study each dose of every compound. Ligands or complexes were administered orally or subcutaneously in 0.1 ml of vehicle per 10 g of body weight 30 minutes before the intrapertioneal injection of 0.1 ml of 0.7% acetic acid solution per 10 g of body weight. Number of writhes were counted for each mouse during a period of 10 to 20 min after acetic acid injection. Inhibitory percent was calculated by comparison with the number of writhes in the non-treated control, vehicle-treated, and acetic acid-injected group. The ED50 value and 95% confidence limits were calculated from the inhibitory percent by the method of Litchfield and Wilcoxon.

[3] = oral, 5% gum arabic, 0.45 mmol/kg
[4] = oral, 5% gum arabic, 0.90 mmol/kg
[5] = oral, 5% gum arabic, 0.42 mmol/kg
[6] = oral, 5% gum arabic, 0.06 mmol/kg
[7] = oral, 5% gum arabic, 0.12 mmol/kg
[8] = oral, 5% gum arabic, 0.24 mmol/kg

## CN1CC[C@]23c4c5ccc(O)c4O[C@H]2[C@@H](O)C=C[C@H]3[C@H]1C5 [morphine, reference compound]
[1]; Rattus norvegicus, sc, read-out: ED50 (AA)
  ED50: 0.002 mmol/kg
[1]; s.c., hydrochloride salt in saline
  ED50 (AA): 0.002 mmol/kg
[1]; s.c., hydrochloride salt in saline, 0.001 mmol/kg
  % Inhibition: 20%
[1]; s.c., hydrochloride salt in saline, 0.002 mmol/kg
  % Inhibition: 40%
[1]; s.c., hydrochloride salt in saline, 0.004 mmol/kg
  % Inhibition: 60%

## CC(C)c1cc(C(=O)O)c(O)c(C(C)C)c1 [3,5-Dips, 3,5-diisopropylsalicylic acid, reference compound]
[2]; oral, 5% gum arabic in saline
  ED50: 0.27 mmol/kg
[2]; [3]
  % Inhibition: 66%
[2]; [4]
  % Inhibition: 88%
[2]; oral, PG-PVA in saline
  ED50: 0.44 mmol/kg
[2]; oral, PG-PVA, 0.45 mmol/kg
  % Inhibition: 56%
[2]; oral, PG-PVA, 0.90 mmol/kg
  % Inhibition: 78%
[2]; s.c., PG-PVA in saline
  ED50: 0.23 mmol/kg
[2]; s.c., PG-PVA, 0.11 mmol/kg
  % Inhibition: 22%
[2]; s.c., PG-PVA, 0.23 mmol/kg
  % Inhibition: 49%
[2]; s.c., PG-PVA, 0.45 mmol/kg
  % Inhibition: 91%
[1]; oral, 5% gum arabic in saline
  ED50: 0.36 mmol/kg
[1]; oral, 5% gum arabic, 0.22 mmol/kg
  % Inhibition: 30%
[1]; [3]
  % Inhibition: 53%
[1]; [4]
  % Inhibition: 92%
[1]; oral, PG-PVA in saline
  ED50: > 0.90 mmol/kg
[1]; oral, PG-PVA, 0.45 mmol/kg
  % Inhibition: 27%
[1]; oral, PG-PVA, 0.90 mmol/kg
  % Inhibition: 43%

## C[C@H](N)C(=O)[O-].C[C@H](N)C(=O)[O-].[Cu+2] [Cu(II)(L-alaninate)2]
[2]; Table VI
  activity versus other copper complexes and parent ligand: less active than the other copper complexes
[2]; oral, 5% gum arabic in saline
  ED50: 0.92 mmol/kg
[2]; [5]
  % Inhibition: 22%
[2]; oral, 5% gum arabic, 0.83 mmol/kg
  % Inhibition: 48%
[2]; oral, 5% gum arabic, 1.67 mmol/kg
  % Inhibition: 71%
[1]; oral, 5% gum arabic in saline
  ED50: > 0.42 mmol/kg
[1]; [5]
  % Inhibition: 0%

## O=C(O)c1ccccc1O [Salicylic acid, reference compound]
[2]; oral, 5% gum arabic in saline
  ED50: 2.13 mmol/kg
[2]; oral, 5% gum arabic, 0.91 mmol/kg
  % Inhibition: 29%
[2]; oral, 5% gum arabic, 1.81 mmol/kg
  % Inhibition: 33%
[2]; oral, 5% gum arabic, 3.62 mmol/kg
  % Inhibition: 73%
[2]; oral, PG-PVA in saline
  ED50: > 2.17 mmol/kg
[2]; oral, PG-PVA, 2.17 mmol/kg
  % Inhibition: 38%
[2]; s.c., PG-PVA in saline
  ED50: 1.02 mmol/kg
[2]; s.c., PG-PVA, 0.54 mmol/kg
  % Inhibition: 25%
[2]; s.c., PG-PVA, 1.09 mmol/kg
  % Inhibition: 52%
[2]; s.c., PG-PVA, 2.17 mmol/kg
  % Inhibition: 80%
[1]; oral, 5% gum arabic in saline
  ED50: 2.33 mmol/kg
[1]; oral, 5% gum arabic, 1.09 mmol/kg
  % Inhibition: 27%
[1]; oral, 5% gum arabic, 2.17 mmol/kg
  % Inhibition: 57%
[1]; oral, 5% gum arabic, 4.34 mmol/kg
  % Inhibition: 37%
[1]; oral, 5% gum arabic, FIG. 1, 5 hours post-treatment
  time course of analgesia: began to decline in the 3 to 4 hr interval following treatment
[1]; oral, PG-PVA in saline
  ED50: 1.83 mmol/kg
[1]; oral, PG-PVA, 0.72 mmol/kg
  % Inhibition: 33%
[1]; oral, PG-PVA, 1.44 mmol/kg
  % Inhibition: 43%
[1]; oral, PG-PVA, 2.88 mmol/kg
  % Inhibition: 60%

## Tetra(.eta.-acetylsalicylato)biscopper(II) [Cu(II)2 (aspirinate)4]
[2]; oral, 5% gum arabic in saline
  ED50: > 0.24 mmol/kg
  analgesic effectiveness versus parent ligand: more effective than their parent ligands
[2]; [6]
  % Inhibition: 37%
[2]; [7]
  % Inhibition: 38%
[2]; [8]
  % Inhibition: 33%
[2]; oral, PG-PVA
  analgesic effectiveness versus parent ligand: more effective than their parent ligands
[2]; oral, PG-PVA in saline
  ED50: 0.14 mmol/kg
[2]; oral, PG-PVA, 0.09 mmol/kg
  % Inhibition: 32%
[2]; oral, PG-PVA, 0.18 mmol/kg
  % Inhibition: 59%
[2]; oral, PG-PVA, 0.36 mmol/kg
  % Inhibition: 80%
[2]; s.c., PG-PVA in saline
  ED50: 0.04 mmol/kg
[2]; s.c., PG-PVA, 0.03 mmol/kg
  % Inhibition: 36%
[2]; s.c., PG-PVA, 0.06 mmol/kg
  % Inhibition: 59%
[2]; s.c., PG-PVA, 0.24 mmol/kg
  % Inhibition: 82%
[1]; oral, 5% gum arabic
  analgesic effectiveness versus parent ligand: more effective than their parent ligand
[1]; oral, 5% gum arabic in saline
  ED50: 0.29 mmol/kg
[1]; [6]
  % Inhibition: 7%
[1]; [7]
  % Inhibition: 17%
[1]; [8]
  % Inhibition: 43%
[1]; oral, PG-PVA in saline
  ED50: 0.09 mmol/kg
[1]; oral, PG-PVA, 0.03 mmol/kg
  % Inhibition: 13%
[1]; oral, PG-PVA, 0.06 mmol/kg
  % Inhibition: 30%
[1]; oral, PG-PVA, 0.12 mmol/kg
  % Inhibition: 60%
[1]; s.c., PG-PVA in saline
  ED50: 0.06 mmol/kg
[1]; s.c., PG-PVA, 0.03 mmol/kg
  % Inhibition: 23%
[1]; s.c., PG-PVA, 0.06 mmol/kg
  % Inhibition: 50%
[1]; s.c., PG-PVA, 0.12 mmol/kg
  % Inhibition: 73%

## [Cl][Cu][Cl] [Cu(II)(chloride)2, reference compound]
[2]; s.c., PG-PVA in saline
  ED50: 0.60 mmol/kg
[2]; s.c., PG-PVA, 0.56 mmol/kg
  % Inhibition: 48%
[2]; s.c., PG-PVA, 1.12 mmol/kg
  % Inhibition: 69%
[2]; s.c., PG-PVA, 2.24 mmol/kg
  % Inhibition: 83%
[1]; doses statistically significantly analgesic in the writhing model
  analgesic activity: devoid of analgesic activity
[1]; oral, PG-PVA in saline
  ED50: > 2.24 mmol/kg
[1]; oral, PG-PVA, 2.24 mmol/kg
  % Inhibition: 0%
[1]; s.c., PG-PVA in saline
  ED50: > 2.24 mmol/kg
[1]; s.c., PG-PVA, 2.24 mmol/kg
  % Inhibition: 3%

## C[C@H](N)C(=O)O [L-alanine, reference compound]
[2]; oral, 5% gum arabic in saline
  ED50: > 4.49 mmol/kg
[2]; oral, 5% gum arabic, 4.49 mmol/kg
  % Inhibition: 14%
